Measurements reported in paper PMC2866084 (Journal of medicinal chemistry, 2010).

How the values were obtained:
[1] = Double-sink PAMPA permeability; assay type: in vitro ADME; conditions: pH 7.4
[2] = test system: CD-1 mice; assay: Dose range-finding toxicity study in male and female CD-1 mice; conditions: for histopathology: after 7 days oral treatment; for body weights compared to vehicle-treated controls: all treated mice, 7 days oral
[3] = test system: Salmonella typhimurium tester strains TA98 and TA100; assay: Ames assay for mutagenicity and cytotoxicity screening; assay type: cell-based; conditions: TA98 and TA100, with and without S-9
[4] = in vivo; conditions: male, CD-1, mouse, po, 50 mg/kg

| concentration at 24 h [4] | SMILES | Papp at 30 min, 50 μM [1] | histopathology [2] | body weights compared to vehicle-treated controls [2] | Bacterial mutagenicity, AMES test [3] |
| --- | --- | --- | --- | --- | --- |
|  | Clc1ccc2c(NCCCNCc3cccc4c3OCO4)ccnc2c1 [Compound 18, N-Benzo[1,3]dioxol-4-ylmethyl-N′-(7-chloro-quinolin-4-yl)-propane-1,3-diamine] | 2400 ± 652 ×10⁻⁶ cm/s | no findings related to the administration of the test articles | remained normal | no increase in mutagenicity |
| < 11.8 nM | CCN(CC)CCCC(C)Nc1ccnc2cc(Oc3ccccc3)ccc12 (centres unmarked) [Compound 1] |  |  |  |  |
|  | CCN(CC)CCCC(C)Nc1ccnc2cc(C(F)(F)F)ccc12 (centres unmarked) [Compound 3] | 2700 ± 107 ×10⁻⁶ cm/s |  |  |  |
|  | CCCN(CCCNc1ccnc2cc(Cl)ccc12)CC1CC1 [Compound 4] | 1110 ± 176 ×10⁻⁶ cm/s |  |  | no increase in mutagenicity |
|  | COc1cccc(CNCCCNc2ccnc3cc(Cl)ccc23)c1O [Compound 20, 2-{[3-(7-Chloro-quinolin-4-ylamino)-propylamino]-methyl}-6-methoxy-phenol] | 1360 ± 214 ×10⁻⁶ cm/s | no findings related to the administration of the test articles | remained normal |  |
